Patent US20250073201A1, “COMPOSITIONS AND METHODS FOR TREATING ACUTE ALCOHOL INTAKE” (NEXT LEVEL HEALTH SCIENCES INC, priority 2021, published 2025)

System: hangover symptoms
Assay: Testing of composition components on alcohol-induced (hangover) symptoms
Assay type: in vivo, human
Protocol: To test, various components of the compositions disclosed herein, individuals were selected to test the efficacy of various formulations. The scale employed during the testing of alcohol-induced symptoms was as follows: (a) no symptoms; (b) very mild symptoms; (c) mild symptoms; (d) moderate symptoms; (e) severe symptoms; and/or (f) very severe symptoms. […] The testing was carried out by a person of average size and build consuming standard alcoholic drinks (e.g., a beer) and the components below were consumed generally prior to consumption of alcohol. […]

[1] = man of average size, standard alcoholic drinks, taken prior to alcohol

With `O=C1c2c(O)cc(O)cc2O[C@H](c2cc(O)c(O)c(O)c2)[C@H]1O` [DHM, dihydromyricetin] the alcohol-induced symptoms (3 drinks, 300 mg DHM (without DHM: very mild symptoms)) was “elimination of all symptoms”, the alcohol-induced symptoms (3 drinks, less than 300 mg DHM (without DHM: very mild symptoms)) was “no reduction of symptoms” and the alcohol-induced symptoms (6 drinks, 300 mg DHM (without DHM: moderate symptoms)) was “reduction to mild symptoms”. The alcohol-induced symptoms (6 drinks, 750 mg DHM (without DHM: moderate symptoms)) was “reduction to very mild symptoms”, the alcohol-induced symptoms (6 drinks, 1200 mg DHM (without DHM: moderate symptoms)) was “elimination of all symptoms” and the alcohol-induced symptoms (9 drinks, 300 mg DHM (without DHM: severe symptoms)) was “no reduction of symptoms”. The alcohol-induced symptoms (9 drinks, 750 mg DHM (without DHM: severe symptoms)) was “reduction to moderate symptoms”, the alcohol-induced symptoms (9 drinks, 1200 mg DHM (without DHM: severe symptoms)) was “reduction to mild symptoms” and the alcohol-induced symptoms (9 drinks, 1500 mg DHM (without DHM: severe symptoms)) was “reduction to very mild symptoms”. For the same compound, the alcohol-induced symptoms (9 drinks, 1850 mg DHM (without DHM: severe symptoms)) was “reduction of all symptoms with the sole exception of fatigue”, the “elimination of all symptoms” value (12 and 15 drinks, all DHM doses tested) was “no dose of DHM, as tested, eliminated all symptoms” and the alcohol-induced symptoms (12 drinks, 750 mg DHM (without DHM: severe symptoms)) was “no reduction of symptoms”. For the same compound, the alcohol-induced symptoms (12 drinks, 1200 mg DHM (without DHM: severe symptoms)) was “no reduction of symptoms”, the alcohol-induced symptoms (12 drinks, 1500 mg DHM (without DHM: severe symptoms)) was “reduction to moderate symptoms” and the alcohol-induced symptoms (12 drinks, 1850 mg DHM (1500 mg gave moderate symptoms)) was “no further reduction in symptoms”. For the same compound, the alcohol-induced symptoms (12 drinks, 2400 mg DHM (1500 mg gave moderate symptoms)) was “no further reduction in symptoms”, the alcohol-induced symptoms (15 drinks, 1500 mg DHM (without DHM: very severe symptoms)) was “no reduction of symptoms” and the alcohol-induced symptoms (15 drinks, 1850 mg DHM (without DHM: very severe symptoms)) was “reduction to severe symptoms”. The alcohol-induced symptoms (15 drinks, 2400 mg DHM (1850 mg gave severe symptoms)) was “no further reduction of symptoms”, the alcohol-induced symptoms (15 drinks, 3600 mg DHM (1850 mg gave severe symptoms)) was “no further reduction of symptoms” and the alcohol-induced symptoms (18 drinks, 1850 mg DHM (without DHM: very severe symptoms)) was “no reduction of symptoms”. For the same compound, the alcohol-induced symptoms (18 drinks, 2400 mg DHM (without DHM: very severe symptoms)) was “no reduction of symptoms”, the alcohol-induced symptoms (18 drinks, 3600 mg DHM (without DHM: very severe symptoms)) was “no reduction of symptoms” and the alcohol-induced symptoms (18 drinks, 5000 mg DHM (without DHM: very severe symptoms)) was “no reduction of symptoms”. The “dosage above which no additional benefits were seen” value [1] was “about 1850 mg” and the “dosage at which benefits on hangover symptoms begin” value [1] was “about 300 mg”.
